According to publication PMC12541587 (Acta Pharmaceutica Sinica. B, 2025):
Values joined by “and” are separate entries in the source; they are usually repeats but may differ in a detail not shown here. Equal entries are not always repeated. Where two headings read alike, the source gives them in different places.

Columns and labels:
σ1R [1] = biological target: σ1R (Rattus norvegicus, UniProt Q9R0C9); test: biochemical; assay type: binding; conditions: for inhibition at 10 µM: read-out: σ1R Inhibition; for inhibition at 1 µM: read-out: σ1R inhibitory rate at 1 μmol/L
σ2R = biological target: T1, σ2R (Rattus norvegicus, UniProt Q5U3Y7); test: σ2R radioligand binding assay
T1 sequence (Q5U3Y7 1-176): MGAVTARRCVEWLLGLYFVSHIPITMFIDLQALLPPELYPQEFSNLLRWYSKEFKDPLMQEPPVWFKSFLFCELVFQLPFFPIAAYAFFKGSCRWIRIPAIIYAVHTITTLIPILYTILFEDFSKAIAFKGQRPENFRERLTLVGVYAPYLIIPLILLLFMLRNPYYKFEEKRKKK

σ1R [2] = assay type: binding, rat; conditions: Ki without DPH / Ki with DPH 250 μmol/L
CYP1A2 = biological target: T2, CYP1A2 (Homo sapiens, UniProt P05177); test: in vitro
T2 sequence (P05177 1-516): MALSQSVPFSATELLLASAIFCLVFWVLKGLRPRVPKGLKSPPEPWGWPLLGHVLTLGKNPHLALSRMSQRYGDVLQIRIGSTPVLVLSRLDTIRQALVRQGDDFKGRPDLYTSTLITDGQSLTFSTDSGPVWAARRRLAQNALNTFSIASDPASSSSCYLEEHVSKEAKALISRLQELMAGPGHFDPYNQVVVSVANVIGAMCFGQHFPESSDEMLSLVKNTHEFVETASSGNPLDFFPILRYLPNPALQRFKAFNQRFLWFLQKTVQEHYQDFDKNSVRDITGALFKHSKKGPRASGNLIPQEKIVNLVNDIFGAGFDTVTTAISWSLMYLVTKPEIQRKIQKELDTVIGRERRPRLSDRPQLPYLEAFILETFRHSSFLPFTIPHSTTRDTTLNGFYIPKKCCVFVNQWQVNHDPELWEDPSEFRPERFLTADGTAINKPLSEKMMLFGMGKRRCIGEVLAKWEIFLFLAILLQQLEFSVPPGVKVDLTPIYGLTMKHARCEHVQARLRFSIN

CYP2C19 = CYP2C19 (Homo sapiens, UniProt P33261); test: CYP450 inhibition: CYP2C19; conditions: probe S-mephenytoin (35 μmol/L)
σ1R-LgBiT and BiP-SmBiT = σ1R-LgBiT and BiP-SmBiT (Homo sapiens, UniProt Q99720); test: NanoBiT σ1R-BiP heterodimerization assay; assay type: cell-based; conditions: 10 μmol/L
σ1R [3] = conditions: read-out: σ1R Ki (clinical σ1R agonists); cited from earlier work
σ1R [4] = conditions: healthy volunteers and Huntington disease patients; cited from earlier work
D2/D3 receptor = conditions: healthy volunteers and Huntington disease patients; cited from earlier work
dopamine D3 = conditions: read-out: dopamine D3 Ki; cited from earlier work
catalepsy = test: Catalepsy bar test; assay type: in vivo, mice

Chain of σ1R (Rattus norvegicus, UniProt Q9R0C9) (Q9R0C9 whole entry): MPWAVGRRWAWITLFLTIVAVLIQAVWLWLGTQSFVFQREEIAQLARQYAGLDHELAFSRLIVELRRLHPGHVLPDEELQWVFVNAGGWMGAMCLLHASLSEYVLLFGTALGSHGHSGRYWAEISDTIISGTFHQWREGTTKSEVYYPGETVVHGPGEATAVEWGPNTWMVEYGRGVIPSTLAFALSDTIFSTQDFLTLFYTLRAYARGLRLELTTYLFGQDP
Chain of CYP2C19 (P33261 whole entry): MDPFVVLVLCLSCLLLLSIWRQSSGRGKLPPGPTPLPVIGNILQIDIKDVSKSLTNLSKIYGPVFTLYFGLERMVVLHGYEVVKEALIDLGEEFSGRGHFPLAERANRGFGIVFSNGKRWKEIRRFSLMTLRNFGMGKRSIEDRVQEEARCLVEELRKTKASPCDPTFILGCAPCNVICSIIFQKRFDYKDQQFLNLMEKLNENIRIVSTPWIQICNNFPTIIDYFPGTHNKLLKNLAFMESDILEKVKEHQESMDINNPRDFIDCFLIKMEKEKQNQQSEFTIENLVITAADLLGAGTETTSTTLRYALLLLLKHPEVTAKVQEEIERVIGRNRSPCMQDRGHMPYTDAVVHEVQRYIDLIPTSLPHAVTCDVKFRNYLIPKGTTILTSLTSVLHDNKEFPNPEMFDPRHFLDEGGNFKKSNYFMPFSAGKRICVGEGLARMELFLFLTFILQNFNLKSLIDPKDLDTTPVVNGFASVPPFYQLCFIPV
Chain of σ1R-LgBiT and BiP-SmBiT (Q99720 whole entry): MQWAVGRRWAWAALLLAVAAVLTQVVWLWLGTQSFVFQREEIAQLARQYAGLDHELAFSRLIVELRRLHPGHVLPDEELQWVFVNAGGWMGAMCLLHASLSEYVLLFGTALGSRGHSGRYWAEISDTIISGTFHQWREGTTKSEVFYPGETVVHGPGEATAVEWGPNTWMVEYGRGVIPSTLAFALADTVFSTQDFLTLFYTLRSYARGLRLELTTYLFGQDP

## COc1ccc(/C(C)=N/OCCCN2CCCCC2)cc1 [15l]
σ1R [1]
  Ki: 39.4 ± 3.4 nM
  inhibition at 10 µM: 93.2%

## FC(F)(F)c1ccc2c(c1)OCC/C2=N\OCCCN1CCCCC1 [15o]
σ1R [1]
  Ki: 76.2 ± 2.92 nM
  inhibition at 10 µM: 99.3%

## C/C(=N\OCCN1CCOCC1)c1ccccc1 [16p]
σ1R [1]
  inhibition at 10 µM: 74.4%
  inhibition at 1 µM: -8.25%

## COc1ccc(/C(C)=N/OCCN2CCOCC2)cc1 [16q]
σ1R [1]
  inhibition at 10 µM: 93.2%
  inhibition at 1 µM: 37.8%

## C/C(=N\OCCN1CCOCC1)c1ccc(Br)cc1 [16r]
σ1R [1]
  inhibition at 10 µM: 106%
  inhibition at 1 µM: 55.4%

## C/C(=N\OCCN1CCOCC1)c1ccc(C)cc1 [16s]
σ1R [1]
  inhibition at 10 µM: 66.2%

## CC(C)=CCN1CC[C@]2(C)c3cc(O)ccc3C[C@H]1[C@H]2C [(+)-Pentazocine]
σ2R
  Ki: 673 ± 27.5 nM
σ1R [1]
  inhibition at 10 µM: 99%

## CN(C)CCN(C)CCc1ccc(Cl)c(Cl)c1 [BD1047]
σ1R [2]
  Ratios Ki/(Ki + phenytoin): 0.63 ± 0.20
σ1R [1]; read-out: σ1R Ki, mean ± SEM, n = 3
  Ki: 0.87 ± 0.15 nM

## COCCCC/C(=N\OCCN)c1ccc(C(F)(F)F)cc1 [Fluvoxamine]
CYP1A2
  inhibition at 10 μmol/L: 95.7%
σ1R [1]
  inhibition at 10 µM: 81.8%
CYP2C19
  inhibition at 10 μmol/L: 95%

## O=C(OCCN1CCOCC1)C1(c2ccccc2)CCCCC1 [PRE084]
σ1R-LgBiT and BiP-SmBiT
  σ1R-LgBiT/BiP-SmBiT interaction, 10 min treatment: decreased this interaction
σ1R [1]; read-out: σ1R Ki
  Ki: 23.1 ± 3.17 nM

## CCCN1CCC(c2cccc(S(C)(=O)=O)c2)CC1 [Pridopidine]
σ1R [3]
  Ki: 57 nM
σ1R [4]
  σ1R occupancy (PET): ~90%
D2/D3 receptor
  D2/D3 receptor occupancy (PET): ~3%
Dopamine D3
  Ki: 1630 nM

## C=CCN1CCC2(C)c3cc(O)ccc3CC1C2C (stereo not shown) [SKF10047]
σ1R [2]
  Ratios Ki/(Ki + phenytoin): 7.10 and 7.10 ± 0.74
σ1R [1]
  Ki: 292 ± 6.18 nM

## Cc1nc2n(c(=O)c1CCN1CCC(c3noc4cc(F)ccc34)CC1)CCCC2 [risperidone]
catalepsy; 3 mg/kg risperidone, 60 min post-administration
  mean catalepsy duration at peak response: 49.57 min
catalepsy; oral, 15d 10 to 45 mg/kg, risperidone 3 mg/kg
  cataleptic response: catalepsy induced by 3 mg/kg risperidone was observed
